Values quoted from earlier work in patent publication US9937154B2, “Use of telmisartan to prevent and treat graft versus host disease and other alloimmune and autoimmune diseases” (Hackensack University Medical Center, priority 2015, dated 2018).
Like-named read-outs stand apart in the source and are kept apart here.

Experiments:
[1] = cited from earlier work
[2] = tested on: plasma proteins, mainly albumin and orosomucoid; details: cited from earlier work
[3] = tested on: Tregs:autoreactive Th17 cells; details: cited from earlier work
lymphocyte chemotaxis = details: in part SDF-1 induced chemotaxis; cited from earlier work
[4] = 80 or 160 mg per day; cited from earlier work
[5] = cited from earlier work; remark: listed apart in the source
cytochrome P450 enzymes = details: cited from earlier work
[6] = tested on: corneal neovascularization; details: corneal systems; cited from earlier work
rat colitis = details: chemically induced acute colitis, cited from earlier work
ROCK = details: cited from earlier work
CYP2C19 = CYP2C19 (Homo sapiens, UniProt P33261); details: in vitro; cited from earlier work
[7] = tested on: patients treated with MICARDIS; details: cited from earlier work
[8] = tested on: patients with mild to moderate hypertension; details: cited from earlier work

Chain of CYP2C19 (P33261 whole entry): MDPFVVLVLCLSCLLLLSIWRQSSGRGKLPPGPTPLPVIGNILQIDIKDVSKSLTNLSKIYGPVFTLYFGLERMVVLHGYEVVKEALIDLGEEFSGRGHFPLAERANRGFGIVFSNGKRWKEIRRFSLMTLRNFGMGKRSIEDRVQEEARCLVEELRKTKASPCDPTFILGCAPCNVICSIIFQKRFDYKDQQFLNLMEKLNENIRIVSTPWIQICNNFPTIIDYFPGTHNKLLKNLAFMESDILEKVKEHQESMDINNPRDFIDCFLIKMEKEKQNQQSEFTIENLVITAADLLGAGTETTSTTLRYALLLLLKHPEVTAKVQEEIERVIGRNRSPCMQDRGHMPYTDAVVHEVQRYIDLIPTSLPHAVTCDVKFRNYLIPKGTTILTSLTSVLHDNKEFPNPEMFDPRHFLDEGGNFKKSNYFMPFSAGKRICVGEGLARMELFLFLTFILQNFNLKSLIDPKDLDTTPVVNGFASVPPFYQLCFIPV

CCCc1nc2c(C)cc(-c3nc4ccccc4n3C)cc2n1Cc1ccc(-c2ccccc2C(=O)O)cc1 [Telmisartan, telmisartan]
reduction in AUC by food ([1]; 40 mg tablet): about 6% | reduction in AUC by food ([1]; 160 mg dose): about 20% | terminal elimination half-life ([1]; in vivo): approximately 24 hours | volume of distribution ([1]; in vivo): approximately 500 liters | bound to plasma proteins [2]: > 99.5% | ratio of protective Tregs:autoreactive Th17 cells [3]: increase the ratio | lymphocyte chemotaxis (lymphocyte chemotaxis): abrogate lymphocyte chemotaxis | incidence of reported poor tolerability [4]: 0.5% | amount found in urine ([5]; intravenous administration): 0.91 % of total radioactivity | administered dose eliminated unchanged in feces via biliary excretion ([5]; intravenous or oral 14C-labeled telmisartan): > 97% | amount found in urine ([5]; oral administration): 0.49 % of total radioactivity | metabolism by the cytochrome P450 system (cytochrome P450 enzymes): not metabolized | effects in vitro on cytochrome P450 enzymes (cytochrome P450 enzymes; except CYP2C19): no effects | neovascularization [6]: prevent neovascularization | effect on colitis (rat colitis; listed as telmisartan): anti-inflammatory effects | effect on colitis (rat colitis): protective effect against rat colitis | potency as ROCK inhibitor compared with Y-27632 (ROCK): as potent an inhibitor of ROCK as Y-27632 | inhibition of CYP2C19 (CYP2C19): some inhibition | incidence of cough ([7]; 6 placebo-controlled trials, identical to placebo): 1.6% | incidence of back pain ([7]; n = 1455): 3% | incidence of diarrhea ([7]; n = 1455): 3% | incidence of pharyngitis ([7]; n = 1455): 1% | incidence of sinusitis ([7]; n = 1455): 3% | incidence of upper respiratory tract infection ([7]; n = 1455): 7% | discontinuation of therapy because of adverse events ([7]; of 1455 patients, placebo-controlled clinical trials): 2.8% | DBP reduction from baseline after placebo subtraction ([8]; 20 mg once daily): ~6 mm Hg | SBP reduction from baseline after placebo subtraction ([8]; 20 mg once daily): 6-8 mm Hg | DBP reduction from baseline after placebo subtraction ([8]; 40 mg once daily): 6-8 mm Hg | SBP reduction from baseline after placebo subtraction ([8]; 40 mg once daily): 9-13 mm Hg | DBP reduction from baseline after placebo subtraction ([8]; 80 mg once daily): 7-8 mm Hg | SBP reduction from baseline after placebo subtraction ([8]; 80 mg once daily): 12-13 mm Hg | time to maximal blood pressure reduction ([8]; after initiation of treatment): ~4 weeks | incidence of symptomatic orthostasis ([8]; after the first dose, all controlled trials): 0.04%
